Data as given in paper PMC3131786 (Journal of Medicinal Chemistry, 2011).
Values belong to the compound of their own block, whether it stands above or below them.

Key:
[1] = cited from earlier work
ATX = ATX activity fully restored upon washing out the inhibitor; cited from earlier work
recombinant ATX = recombinant ATX (Homo sapiens, UniProt Q13822); test: Choline release assay; format: biochemical; conditions: for residual ATX activity: at maximal inhibition in the dose-response curve (Figure S3)

Compound: lysophosphatidic acid [LPA]
half-life of LPA in vivo [1]: ~5 min

Compound: O=C1S/C(=C\c2ccc(OCc3ccc(B(O)O)cc3)cc2)C(=O)N1Cc1ccc(F)cc1 [inhibitor 1, (Z)-4-[(4-{[3-(4-Fluorobenzyl)-2,4-dioxo-1,3-thiazolan-5-yliden]methyl}phenoxy)methyl]benzene Boronic Acid]
reversibility of binding to ATX (ATX): reversible

Compound: O=C(Nc1ccc(/C=C2\SC(=O)N(Cc3ccc(F)cc3)C2=O)cc1)c1ccc(B(O)O)cc1 [inhibitor 19]
residual ATX activity (recombinant ATX): 10%

Next, values leading:

residual ATX activity (recombinant ATX): no residual ATX activity
Compound: O=C1S/C(=C\c2ccc(NCc3ccc(B(O)O)cc3)cc2)C(=O)N1Cc1ccc(F)cc1 [inhibitor 36]

shape of dose-response curve (recombinant ATX; Figure S2, n=5): biphasic curve
Compound: O=C(Nc1ccc(B(O)O)cc1)c1ccc(/C=C2\SC(=O)N(Cc3ccc(F)cc3)C2=O)cc1 [inhibitor 17]
